Laboratory results: patent US20090155387A1, “STABLE PHARMACEUTICAL COMPOSITION COMPRISING BETA-LACTAM ANTIBIOTIC AND ION-CHELATING AGENT” (priority 2006, published 2009)

Experiment: Amounts of β-lactam antibiotic, β-lactamase inhibitor and aminoglycoside antibiotic in solution over time (reverse-phase LC/HPLC)
Type: physicochemical
Procedure: The amounts of β-lactam antibiotics and β-lactamase inhibitor were determined using C18 reverse-phase LC and UV-VIS detector (Tianjin […] Co., Ltd., analysis method No. HM-K-03). The content of aminoglycoside antibiotics was measured using reverse-phase HPLC and evaporation-light-scattering detector (ELSD detector) (Tianjin […] Co., Ltd., analysis method No. HM-K-08). The amount of antibiotic component at each time point was expressed as a percentage with respect to the amount at the initial time. The relative amount of each antibiotic component in the composition at each time point was expressed as peak area ratio with respect to the corresponding peak area of an external standard.

[1] = in Example 5 solution, pH 6.75, room temperature, 0 h
[2] = in Example 5 solution, pH 6.75, room temperature, 1 h
[3] = in Example 5 solution, pH 6.75, room temperature, 2 h
[4] = in Example 5 solution, pH 6.75, room temperature, 4 h
[5] = in Example 19 solution, pH 6.75, room temperature, 0 h
[6] = in Example 19 solution, pH 6.75, room temperature, 1 h
[7] = in Example 19 solution, pH 6.75, room temperature, 2 h
[8] = in Example 19 solution, pH 6.75, room temperature, 4 h
[9] = in Example 19 solution, pH 6.75, room temperature, 6 h
[10] = in Example 19 solution, pH 6.75, room temperature, 8 h
[11] = in Example 20 solution (no EDTA), pH 6.75, room temperature, 0 h
[12] = in Example 20 solution (no EDTA), pH 6.75, room temperature, 1 h
[13] = in Example 20 solution (no EDTA), pH 6.75, room temperature, 2 h
[14] = in Example 20 solution (no EDTA), pH 6.75, room temperature, 4 h
[15] = in Example 20 solution (no EDTA), pH 6.75, room temperature, 6 h
[16] = in Example 20 solution (no EDTA), pH 6.75, room temperature, 8 h

CCN1CCN(C(=O)N[C@@H](C(=O)N[C@@H]2C(=O)N3C(C(=O)O)=C(CSc4nnnn4C)CS[C@H]23)c2ccc(O)cc2)C(=O)C1=O [Cefoperazone sodium]
amount (percentage of initial amount) (in Example 4 solution (no EDTA), pH 6.75, room temperature, 0 h): 101.4%
amount (percentage of initial amount) (in Example 4 solution (no EDTA), pH 6.75, room temperature, 1 h): 98.66%
amount (percentage of initial amount) (in Example 4 solution (no EDTA), pH 6.75, room temperature, 2 h): 98.79%
amount (percentage of initial amount) (in Example 4 solution (no EDTA), pH 6.75, room temperature, 4 h): 101.5%
amount (percentage of initial amount) (in Example 4 solution (no EDTA), pH 6.75, room temperature, 6 h): 107.4%
amount (percentage of initial amount) [1]: 101.4%
amount (percentage of initial amount) [2]: 98.66%
amount (percentage of initial amount) [3]: 98.79%
amount (percentage of initial amount) [4]: 101.5%
amount (percentage of initial amount) (in Example 5 solution, pH 6.75, room temperature, 6 h): 107.4%
amount (percentage of initial amount) (in Example 6 solution, pH 6.5, room temperature, 0 h): 110.4%
amount (percentage of initial amount) (in Example 6 solution, pH 6.5, room temperature, 1 h): 99.48%
amount (percentage of initial amount) (in Example 6 solution, pH 6.5, room temperature, 2 h): 101.3%
amount (percentage of initial amount) (in Example 6 solution, pH 6.5, room temperature, 4 h): 98.66%
amount (percentage of initial amount) (in Example 6 solution, pH 6.5, room temperature, 6 h): 98.02%
amount (percentage of initial amount) (in Example 6 solution, pH 6.5, room temperature, 8 h): 99.30%
amount (percentage of initial amount) (in Example 12 solution (no aminoglycoside) from freeze-dried powder stored 7 days at 0° C., redissolved, 0 h): 100.2%
amount (percentage of initial amount) (in Example 12 solution (no aminoglycoside) from freeze-dried powder stored 7 days at 0° C., redissolved, 1 h): 99.0%
amount (percentage of initial amount) (in Example 12 solution (no aminoglycoside) from freeze-dried powder stored 7 days at 0° C., redissolved, 2 h): 99.0%
amount (percentage of initial amount) (in Example 12 solution (no aminoglycoside) from freeze-dried powder stored 7 days at 0° C., redissolved, 4 h): 96.2%
amount (percentage of initial amount) (in Example 12 solution (no aminoglycoside) from freeze-dried powder stored 7 days at 0° C., redissolved, 6 h): 94.5%
amount (percentage of initial amount) (in Example 12 solution (no aminoglycoside) from freeze-dried powder stored 7 days at 0° C., redissolved, 8 h): 95.3%
amount (percentage of initial amount) (in Example 13 solution (Example 12 solution + etimicin sulfate), 0 h): 100.2%
amount (percentage of initial amount) (in Example 13 solution (Example 12 solution + etimicin sulfate), 1 h): 99.0%
amount (percentage of initial amount) (in Example 13 solution (Example 12 solution + etimicin sulfate), 2 h): 99.0%
amount (percentage of initial amount) (in Example 13 solution (Example 12 solution + etimicin sulfate), 4 h): 96.2%
amount (percentage of initial amount) (in Example 13 solution (Example 12 solution + etimicin sulfate), 6 h): 94.5%
amount (percentage of initial amount) (in Example 13 solution (Example 12 solution + etimicin sulfate), 8 h): 95.3%
amount (percentage of initial amount) (in Example 14 solution, pH 6.5, room temperature, 0 h): 98.42%
amount (percentage of initial amount) (in Example 14 solution, pH 6.5, room temperature, 1 h): 97.39%
amount (percentage of initial amount) (in Example 14 solution, pH 6.5, room temperature, 2 h): 97.46%
amount (percentage of initial amount) (in Example 14 solution, pH 6.5, room temperature, 4 h): 94.70%
amount (percentage of initial amount) (in Example 14 solution, pH 6.5, room temperature, 6 h): 93.02%
amount (percentage of initial amount) (in Example 15 solution, pH 6.5, room temperature, 0 h): 101.7%
amount (percentage of initial amount) (in Example 15 solution, pH 6.5, room temperature, 1 h): 96.06%
amount (percentage of initial amount) (in Example 15 solution, pH 6.5, room temperature, 2 h): 95.72%
amount (percentage of initial amount) (in Example 15 solution, pH 6.5, room temperature, 4 h): 97.32%
amount (percentage of initial amount) (in Example 15 solution, pH 6.5, room temperature, 6 h): 69.95%
amount (percentage of initial amount) (in Example 16 solution, pH 6.5, room temperature, 0 h): 102.9%
amount (percentage of initial amount) (in Example 16 solution, pH 6.5, room temperature, 1 h): 108.6%
amount (percentage of initial amount) (in Example 16 solution, pH 6.5, room temperature, 2 h): 104.6%
amount (percentage of initial amount) (in Example 16 solution, pH 6.5, room temperature, 4 h): 99.50%
amount (percentage of initial amount) (in Example 16 solution, pH 6.5, room temperature, 6 h): 98.91%
amount (percentage of initial amount) (in Example 16 solution, pH 6.5, room temperature, 8 h): 103.4%
amount (percentage of initial amount) [5]: 95.91%
amount (percentage of initial amount) [6]: 97.01%
amount (percentage of initial amount) [7]: 95.94%
amount (percentage of initial amount) [8]: 95.86%
amount (percentage of initial amount) [9]: 95.41%
amount (percentage of initial amount) [10]: 95.22%
amount (percentage of initial amount) [11]: 92.30%
amount (percentage of initial amount) [12]: 94.80%
amount (percentage of initial amount) [13]: 94.06%
amount (percentage of initial amount) [14]: 94.12%
amount (percentage of initial amount) [15]: 93.15%
amount (percentage of initial amount) [16]: 94.50%
amount (percentage of initial amount) (in Example 21 solution, pH 6.75, room temperature (22° C.), 0 h): 92.44%
amount (percentage of initial amount) (in Example 21 solution, pH 6.75, room temperature (22° C.), 1 h): 104.6%
amount (percentage of initial amount) (in Example 21 solution, pH 6.75, room temperature (22° C.), 2 h): 102.4%
amount (percentage of initial amount) (in Example 21 solution, pH 6.75, room temperature (22° C.), 4 h): 97.95%
amount (percentage of initial amount) (in Example 21 solution, pH 6.75, room temperature (22° C.), 6 h): 98.90%
amount (percentage of initial amount) (in Example 21 solution, pH 6.75, room temperature (22° C.), 8 h): 102.9%

Gentamicin
amount (percentage of initial amount) [1]: 101.7%
amount (percentage of initial amount) [2]: 104.2%
amount (percentage of initial amount) [3]: 96.1%
amount (percentage of initial amount) [4]: 100.1%

NCC[C@H](O)C(=O)N[C@@H]1C[C@H](N)[C@@H](O[C@H]2O[C@H](CN)[C@@H](O)[C@H](O)[C@H]2O)[C@H](O)[C@H]1O[C@H]1O[C@H](CO)[C@@H](O)[C@H](N)[C@H]1O [Amikacin]
amount (percentage of initial amount) [5]: 99.91%
amount (percentage of initial amount) [6]: 99.50%
amount (percentage of initial amount) [7]: 98.88%
amount (percentage of initial amount) [8]: 99.45%
amount (percentage of initial amount) [9]: 98.56%
amount (percentage of initial amount) [10]: 99.36%
amount (percentage of initial amount) [11]: 95.98%
amount (percentage of initial amount) [12]: 91.49%
amount (percentage of initial amount) [13]: 85.05%
amount (percentage of initial amount) [14]: 91.00%
amount (percentage of initial amount) [15]: 81.93%
amount (percentage of initial amount) [16]: 89.98%
